Data from ChEMBL document CHEMBL1201862, “PubChem BioAssay data set” (2004).
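Compound exposure: 48 hours, 5 concentrations, 96-well plates. GI50: concentration for 50% inhibition of growth.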 Active and inactive are the calls of the source. Rule as the data show it: active = GI50 up to about 1.1 µM and inactive = higher.

Experiments:
Assay in all cases: inhibition of tumour cell growth, NCI panel, 48 h
CAKI-1 = test system: CAKI-1
HCT-15 = test system: HCT-15
HT-29 = test system: HT-29
OVCAR-3 = test system: OVCAR-3
OVCAR-4 = test system: OVCAR-4
RPMI-8226 = test system: RPMI-8226
SF-268 = test system: SF-268
SF-295 = test system: SF-295
SK-MEL-2 = test system: SK-MEL-2
SK-MEL-5 = test system: SK-MEL-5
SK-OV-3 = test system: SK-OV-3
SN12C = test system: SN12C
SR = test system: SR
SW-620 = test system: SW-620
U-251 = test system: U-251
UACC-257 = test system: UACC-257
MDA-MB-231 = test system: MDA-MB-231
MDA-MB-435 = test system: MDA-MB-435
PC-3 = test system: PC-3
BT-549 = test system: BT-549

| SMILES | GI50 (CAKI-1) | GI50 (HCT-15) | GI50 (HT-29) | GI50 (OVCAR-3) | GI50 (OVCAR-4) | GI50 (RPMI-8226) | GI50 (SF-268) | GI50 (SF-295) | GI50 (SK-MEL-2) | GI50 (SK-MEL-5) | GI50 (SK-OV-3) | GI50 (SN12C) | GI50 (SR) | GI50 (SW-620) | GI50 (U-251) | GI50 (UACC-257) | GI50 (MDA-MB-231) | GI50 (MDA-MB-435) | GI50 (PC-3) | GI50 (BT-549) |
| --- | --- | --- | --- | --- | --- | --- | --- | --- | --- | --- | --- | --- | --- | --- | --- | --- | --- | --- | --- | --- |
| CC1(C)CC2CC(CC(C)(C)C2=O)C1=O | > 100 µM (inactive) | > 100 µM | > 100 µM (inactive) | > 100 µM (inactive) | > 100 µM (inactive) | > 100 µM (inactive) | > 100 µM (inactive) | > 100 µM (inactive) | > 100 µM (inactive) | > 100 µM (inactive) | > 100 µM (inactive) | > 100 µM (inactive) | > 100 µM (inactive) | > 100 µM (inactive) | > 100 µM (inactive) | > 100 µM (inactive) |  |  |  |  |
| CCCCCCCCCCCCc1ccc(S(=O)(=O)O)cc1 | > 100 µM (inactive) | > 100 µM | > 100 µM (inactive) | > 100 µM (inactive) | > 100 µM (inactive) | > 100 µM (inactive) | > 100 µM (inactive) | > 100 µM (inactive) |  | > 100 µM (inactive) | > 100 µM (inactive) | > 100 µM (inactive) |  | > 100 µM (inactive) | 89.7 µM (inactive) | 64.6 µM (inactive) | > 100 µM (inactive) | > 100 µM (inactive) | > 100 µM (inactive) |  |
| COC(=O)c1ccccc1/C=C1\Cc2cc(C)c(C)cc2C1=O | > 100 µM (inactive) | > 100 µM | > 100 µM (inactive) | > 100 µM (inactive) | > 100 µM (inactive) | > 100 µM (inactive) | 40.3 µM (inactive) | 49.3 µM (inactive) | 14 µM (inactive) | > 100 µM (inactive) |  | > 100 µM (inactive) | > 100 µM (inactive) | > 100 µM (inactive) | 27.1 µM (inactive) | > 100 µM (inactive) |  | > 100 µM (inactive) | > 100 µM (inactive) | 34.5 µM (inactive) |
| COc1cc(OCc2ccc3nc(-c4ccccc4)c(Cl)nc3c2)cc(OC)c1OC | 24.8 µM (inactive) | > 100 µM | > 100 µM (inactive) | > 100 µM (inactive) | > 100 µM (inactive) | > 100 µM (inactive) | > 100 µM (inactive) | 37.4 µM (inactive) | 45.5 µM (inactive) | 20.5 µM (inactive) |  | > 100 µM (inactive) | > 100 µM (inactive) | > 100 µM (inactive) | 16.5 µM (inactive) | > 100 µM (inactive) | 39.1 µM (inactive) | > 100 µM (inactive) | > 100 µM (inactive) |  |
| COc1cc(OC)cc(-n2c(N)c(-c3nc4ccccc4s3)c3ccc([N+](=O)[O-])cc3c2=O)c1 | 31.8 µM (inactive) | 61.1 µM | > 100 µM (inactive) |  | 17 µM (inactive) | > 100 µM (inactive) | 57 µM (inactive) | 28.5 µM (inactive) |  | 45.8 µM (inactive) | 79.6 µM (inactive) | 18.4 µM (inactive) | 24.3 µM (inactive) | > 100 µM (inactive) | 34.1 µM (inactive) | > 100 µM (inactive) | 21.3 µM (inactive) | > 100 µM (inactive) |  | > 100 µM (inactive) |
| COC(=O)C1=C(O)c2cc(OC)c(OC)cc2C(c2ccc(OC)c(OC)c2)C1 (stereo not drawn) | > 100 µM (inactive) | 78.7 µM | 71.6 µM (inactive) | > 100 µM (inactive) | > 100 µM (inactive) | > 100 µM (inactive) | 69.3 µM (inactive) | 46.9 µM (inactive) | > 100 µM (inactive) | > 100 µM (inactive) | > 100 µM (inactive) | 51.2 µM (inactive) | 38.5 µM (inactive) | 54.8 µM (inactive) | > 100 µM (inactive) | > 100 µM (inactive) |  |  |  |  |
| Cc1ccc(S(=O)(=O)c2c3nc4ccccc4nc3n3c2[nH]c2ccccc23)cc1 | > 100 µM (inactive) | > 100 µM |  | > 100 µM (inactive) | > 100 µM (inactive) | > 100 µM (inactive) | > 100 µM (inactive) |  | > 100 µM (inactive) | > 100 µM (inactive) | > 100 µM (inactive) | > 100 µM (inactive) | > 100 µM (inactive) | > 100 µM (inactive) | > 100 µM (inactive) | > 100 µM (inactive) |  |  |  |  |
| Cn1cnc([N+](=O)[O-])c1SC1=NCCS1 | > 100 µM (inactive) |  | > 100 µM (inactive) | > 100 µM (inactive) | 89.9 µM (inactive) | 36.7 µM (inactive) | > 100 µM (inactive) | > 100 µM (inactive) | 47.4 µM (inactive) | > 100 µM (inactive) | > 100 µM (inactive) | > 100 µM (inactive) | 24.5 µM (inactive) | 47.6 µM (inactive) | > 100 µM (inactive) | 72.8 µM (inactive) |  |  |  |  |
| C=C(CN(C)C)C(=O)c1ccc(C(=O)C(=C)CN(C)C)cc1 | > 100 µM (inactive) | > 100 µM | > 100 µM (inactive) | > 100 µM (inactive) | > 100 µM (inactive) | > 100 µM (inactive) | > 100 µM (inactive) | > 100 µM (inactive) | > 100 µM (inactive) | > 100 µM (inactive) | > 100 µM (inactive) | > 100 µM (inactive) | > 100 µM (inactive) | > 100 µM (inactive) | > 100 µM (inactive) | > 100 µM (inactive) |  |  |  |  |
| Cc1cc(C)c2c(-c3ccccc3)cc(=O)[nH]c2c1 |  | > 100 µM | > 100 µM (inactive) | > 100 µM (inactive) | > 100 µM (inactive) | > 100 µM (inactive) | > 100 µM (inactive) | > 100 µM (inactive) | > 100 µM (inactive) | > 100 µM (inactive) | > 100 µM (inactive) | > 100 µM (inactive) |  | > 100 µM (inactive) | > 100 µM (inactive) | > 100 µM (inactive) | > 100 µM (inactive) | > 100 µM (inactive) | > 100 µM (inactive) |  |
| CCOC(=O)CCC(C(=O)OCC)n1nnc2ccc(Nc3c(C)[n+]([O-])c4cc(Cl)ccc4[n+]3[O-])cc21 (stereo not drawn) | 34.4 µM (inactive) | 22.8 µM | 27.2 µM (inactive) | 17.7 µM (inactive) | 18.3 µM (inactive) | 20.9 µM (inactive) | 18.8 µM (inactive) | 68.1 µM (inactive) | 21.7 µM (inactive) |  | 99.5 µM (inactive) | 24.5 µM (inactive) | 30.3 µM (inactive) |  | 51.8 µM (inactive) | 16.3 µM (inactive) |  | 19.2 µM (inactive) | 53.8 µM (inactive) | 26.5 µM (inactive) |
| Nc1ccc(C(=O)NN2C(=O)C(Cl)C2c2ccccc2Cl)cc1 (stereo not drawn) | 13.9 µM (inactive) | 3.01 µM | 10.3 µM (inactive) | 13.8 µM (inactive) | 13.8 µM (inactive) | 6.25 µM (inactive) | 3.84 µM (inactive) | 2.95 µM (inactive) | 11.3 µM (inactive) | 16 µM (inactive) | 16.1 µM (inactive) |  | 5.45 µM (inactive) | 3.46 µM (inactive) | 12.3 µM (inactive) | 13.6 µM (inactive) |  |  |  |  |
| CCSC1=N/C(=C\c2ccco2)C(Nc2ccc(C)cc2)=N1 |  | > 100 µM | > 100 µM (inactive) | > 100 µM (inactive) |  | > 100 µM (inactive) | > 100 µM (inactive) | > 100 µM (inactive) | > 100 µM (inactive) | > 100 µM (inactive) | > 100 µM (inactive) | > 100 µM (inactive) | > 100 µM (inactive) | > 100 µM (inactive) | > 100 µM (inactive) |  | > 100 µM (inactive) | > 100 µM (inactive) | > 100 µM (inactive) |  |
| CC(=O)Oc1cc2c(=O)oc3c(OC(C)=O)c(OC(C)=O)c(OC(C)=O)c4c(=O)oc(c1OC(C)=O)c2c34 | > 100 µM (inactive) | > 100 µM | 37.9 µM (inactive) | > 100 µM (inactive) | 41.9 µM (inactive) | 73.8 µM (inactive) | 48.4 µM (inactive) | 20.8 µM (inactive) | 28.8 µM (inactive) | 61.1 µM (inactive) | 36.3 µM (inactive) | 29 µM (inactive) | 24.8 µM (inactive) | 34.5 µM (inactive) | 36.6 µM (inactive) | 45.5 µM (inactive) |  |  |  |  |
| COC(=O)/C=C(/C=C1/C(C#N)=C(N)N(c2ccc(Cl)cc2)C1(C)/C(=C/C(=O)OC)C(=O)OC)C(=O)OC (stereo not drawn) | > 100 µM (inactive) | 23.8 µM | 33.4 µM (inactive) | 81.8 µM (inactive) | > 100 µM (inactive) | 24.7 µM (inactive) | > 100 µM (inactive) | 53.1 µM (inactive) | > 100 µM (inactive) |  | 52.5 µM (inactive) | 35.8 µM (inactive) | 29.6 µM (inactive) | 32.7 µM (inactive) | 41.4 µM (inactive) | 63.4 µM (inactive) | 8.69 µM (inactive) | 52.4 µM (inactive) | 34.6 µM (inactive) |  |
| CC1=NN(C(=O)CC(=O)Nc2ccccc2)C(=O)C1/N=N/c1ccc(S(N)(=O)=O)cc1 (stereo not drawn) | 50.8 µM (inactive) | > 100 µM | > 100 µM (inactive) | 66.2 µM (inactive) | 60.4 µM (inactive) | 84.5 µM (inactive) | 80.9 µM (inactive) | > 100 µM (inactive) | > 100 µM (inactive) | 36.4 µM (inactive) | > 100 µM (inactive) | 41.9 µM (inactive) | 56.9 µM (inactive) | 59.4 µM (inactive) | 56.4 µM (inactive) | > 100 µM (inactive) |  |  |  |  |
| O=C(O)CSc1nnc(Cc2ccccc2)[nH]1 | > 100 µM (inactive) | > 100 µM | > 100 µM (inactive) | > 100 µM (inactive) | > 100 µM (inactive) | > 100 µM (inactive) | > 100 µM (inactive) | > 100 µM (inactive) | > 100 µM (inactive) | > 100 µM (inactive) | > 100 µM (inactive) | > 100 µM (inactive) | > 100 µM (inactive) | > 100 µM (inactive) | > 100 µM (inactive) | > 100 µM (inactive) |  |  |  |  |
